Entries after “also recorded” stand apart in the source; their conditions may differ.
What was measured:
[1] = system: IgG serum antibody response to Ovalbumin; assay: Adjuvant activity: IgG serum antibody response to Ovalbumin in mice; assay type: in vivo; conditions: for IgG response recorded as OD: 50 micrograms Ovalbumin, two weeks, sera 1 to 100; for IgG response recorded as OD then rebased relative to 100 for each control: control = 100
Description: Adjuvant Activity of Hepreceptor Peptides Enhancing the IgG Serum Antibody Response to Ovalbumin in Mice
The IgG response in mice two weeks after an injection of 50 micrograms of Ovalbumin plus various concentrations of different hepreceptor peptides was determined. IgG response was measured by Optical Density (OD) of a 1 to 100 dilution of mouse sera in the presence of Ovalbumin.
IgG response recorded as OD
IgG response recorded as OD then data rebased relative to 100 for each control

[2] = system: HLA Class I on human White Blood Cells; assay: Expression of MHC (HLA) Class I on human White Blood Cells; assay type: cell-based; conditions: 0.003 micrograms per ml
Source text: A cell specific effect of this activation was an increase in the population of monocytes expressing MHC Class I and a decrease in the population of CD8 lymphocytes expressing MHC Class I.

[3] = system: transplanted sarcoma of the uterus SM-322; assay: Transplanted mouse sarcoma SM-322 model; assay type: in vivo, CBA mice; conditions: for Percent decrease in tumour volume relative to control: SM-322
Source text: Anticancer Activity of Hepreceptor Peptides on the Growth of Transplanted Sarcoma of the Uterus SM-322 and on Cancer of the Uterine Cervix CUS-5 Performed in CBA Mice Using Rupe312 and Rupe414 as Examples Transplanted mouse sarcoma SM-322 model (endothelial tumour). Primary tumours of the uterus were induced in female mice using 1.2 dimethylhydrazine. A few primary tumours were transplanted into syngeneic mice. The first visible nodules started to appear at the point of transplation after 4 days. The life expectancy of the mice with transplanted tumours was 22-24 days. […] The tumours were introduced as a 0.5 ml of tumour suspension (1 g tumour per 10 ml of Igla medium) and ten mice used in each treatment group. […] The average percent decrease of tumour volume relative to the control group was recorded at three time points. The longevity of the mice in the treatment groups and control groups was compared and the histology of the tumours between control and treatment groups was compared.

[4] = system: human Peripheral Blood Mononuclear Cells; assay: In vitro activation of human PBMC, tritiated thymidine incorporation; assay type: cell-based; conditions: for incorporation of 3H thymidine: three days, Control 370
Description: Peripheral Blood Mononuclear Cells (PBMC) were separated from the peripheral blood of a […] donor using the standard method of fractionation in a ficoll gradient. The PBMC were suspended in culture medium containing RPMI1640 medium plus 10% fetal calf serum, 1 mM L-glutamin and antibiotics (BM). The cell suspension was placed in wells of a 96 hole microwell plate for cell cultivation, (100 microliters of suspension containing 100,000 cells per well). […] The negative control well contained BM but no peptide. The plate was incubated at 37° C. for three days then radioactive ^3H thymidine was added to a final concentration of 1 microcurie per ml. The incorporation of ^3H thymidine into the DNA of the cells was measured using a betacounter using standard procedures. The experiment was repeated twice and the results expressed as an average of the two experiments in radioactive counts per minute.

[5] = system: antibody forming cells against sheep erythocytes (SRBC); assay: Antibody forming cells against sheep erythocytes (SRBC) in mice, plaque count; assay type: in vivo; conditions: four days after SRBC, thirty mice per data point
Description: Activity of Hepreceptor Peptides Enhancing the Antibody-Dependent Cytotoxic Response in […] to Sheep Red Blood Cells (SRBC) in Mice
The influence of Hepreceptor peptides on the activation of antibody forming cells against sheep erythocytes (SRBC) in Mice (CBA-C57B1 Fi hybrids. 2 months old, weight 18-22 grams) was determined. Mice were first injected intraperitoneally using either 0.5 ml sterile saline as a control or Hepreceptor peptides in the same volume of saline. 30 minutes after the injection of Hepreceptor peptides, a cell suspension containing 5 million SRBC was administered intraperitoneally to each mouse. Four days after the immunisation, the mice were killed by cervical dislocation and the spleens were obtained aseptically. Each spleen was homogenised in 2 ml of Medium 199, then 100 microliters of this suspension was put into 1 ml of prepared agarose in Medium 199 (stored in water bath at 48° C.), SRBC suspension was added, resulting in a final concentration of 1% agarose. The Im1 of agarose-cell mixture was agitated then transferred to petri dish to set. When the agarose became solid, the petri dish was incubated for 1 hour at 37° C. then 0.5 ml of 1-in-20 diluted guinea pig serum in Medium 199 was added on top of agarose gel as a source of complement. The incubation was continued for another 1 hour. The dishes were then visualised using an 8×binocular microscope and the number of plaques counted (each plaque equivalent to one antibody secreting mouse spleen cell). The results were expressed both as the number of antibody secreting cells per one million nucleated spleen cells and the number of antibody secreting cells per whole spleen.
Averaged data (from thirty mice per data point) of the number of antibody forming cells per one million nucleated spleen cells. The data was re-based relative to 100 for each control group.

IL-8 = IL-8 production in human WBC; assay type: cell-based; conditions: 48 hour incubation, without peptide 18900
Description: The suppressive effect of increasing concentrations of Rupe312, a Hepreceptor peptide, on the expression of IL-8 by human WBC after a 48 hour incubation at 37° C. was detected. IL-8 is a chemotactic factor that is produced in response to inflammatory stimulus which attracts and activates T cells, neutrophils, basophils, granulocytes but not monocyte/macrophages. The inhibition of IL-8 may play a role in the selective activity of Rupe 312 in activating monocytes macrophages. The measurement of IL-8 provides an assay for determining the activity of various Hepreceptor derived peptides.

[6] = IP injection 0.01 micrograms per mouse
[7] = IP injection 0.1 micrograms per mouse
[8] = IP injection 1 microgram per mouse
[9] = IP injection 10 micrograms per mouse

In the case of “KKRRETVERE (Hepreceptor peptide) [Rupe312]”, the “IgG response recorded as OD” value [1, 6] is reported as 0.68 OD, the “IgG response recorded as OD then rebased relative to 100 for each control” value [1, 6] is reported as 99 and the “IgG response recorded as OD” value [1, 7] is reported as 0.88 OD. For the same sequence, the “IgG response recorded as OD then rebased relative to 100 for each control” value [1, 7] was 128, the “IgG response recorded as OD” value [1, 8] was 0.55 OD and the “IgG response recorded as OD then rebased relative to 100 for each control” value [1, 8] was 80. The “IgG response recorded as OD” value [1, 9] was 0.44 OD, the “IgG response recorded as OD then rebased relative to 100 for each control” value [1, 9] was 64 and the “relative activity in lowering intensity of HLA expression on WBC” value ([2]; 24 hours) was “more active than Rupe 414”. The “Density of cell surface expression of HLA Class I, rebased to 100 for control” value (“Density” below) ([2]; B and NK cells, 24 hours) was 73, the “Percentage of cell population expressing HLA Class I, rebased to 100 for control” value (“Percentage” for short) ([2]; B and NK cells, 24 hours) was 105 and the “Density” value ([2]; CD4 lymphocytes, 24 hours) was 70. For the same sequence, the “Percentage” value ([2]; CD4 lymphocytes, 24 hours) was 104, the “Density” value ([2]; CD8 lymphocytes, 24 hours) was 72 and the “Percentage” value ([2]; CD8 lymphocytes, 24 hours) was 85. For the same sequence, the “Density” value ([2]; Granulocytes, 24 hours) was 81, the “Percentage” value ([2]; Granulocytes, 24 hours) was 98 and the “Percentage” value ([2]; Monocytes/Macrophages, 24 hours) was 119. For the same sequence, the “Density” value ([2]; Monocytes/Macrophages, 24 hours at 37° C.) was 71, the “Percent decrease in tumour volume relative to control” value ([3]; 0.1 Microg/mouse IP twice weekly, Day 8) was 61% and the “Percent decrease in tumour volume relative to control” value ([3]; 0.1 Microg/mouse IP twice weekly, Day 12) was 34%. For the same sequence, the “Percent decrease in tumour volume relative to control” value ([3]; 0.1 Microg/mouse IP twice weekly, Day 15) was 59%, the “Percent decrease in tumour volume relative to control” value ([3]; 1 Microg/mouse IP twice weekly, Day 8) was 67% and the “Percent decrease in tumour volume relative to control” value ([3]; 1 Microg/mouse IP twice weekly, Day 12) was 32%. For the same sequence, the “Percent decrease in tumour volume relative to control” value ([3]; 1 Microg/mouse IP twice weekly, Day 15) was 38%, the “Percent decrease in tumour volume relative to control” value ([3]; 10 Microg/mouse IP twice weekly, Day 8) was 63% and the “Percent decrease in tumour volume relative to control” value ([3]; 10 Microg/mouse IP twice weekly, Day 12) was 54%. The “Percent decrease in tumour volume relative to control” value ([3]; 10 Microg/mouse IP twice weekly, Day 15) was 27%, the “histology of the tumours” value ([3]; both models (SM-322 and CUC-5)) was “non bleeding ulcerous destruction of the centre of tumours” and the “activity relative to HEP1” value ([4]; PBMC activation, thymidine incorporation) was “significantly more active than HEP1; also recorded: ten fold higher activity than HEP1”. The “concentration of peak activity” value ([4]; PBMC proliferation) was “around 3 nanograms/ml”, the “incorporation of 3H thymidine” value ([4]; Peptide 0.0001 micro g/ml) was 563 radioactive counts per minute and the “incorporation of 3H thymidine” value ([4]; Peptide 0.0003 micro g/ml) was 742 radioactive counts per minute. For the same sequence, the “incorporation of 3H thymidine” value ([4]; Peptide 0.001 micro g/ml) was 976 radioactive counts per minute, the “incorporation of 3H thymidine” value ([4]; Peptide 0.003 micro g/ml) was 3222 radioactive counts per minute and the “incorporation of 3H thymidine” value ([4]; Peptide 0.01 micro g/ml) was 656 radioactive counts per minute. For the same sequence, the “incorporation of 3H thymidine” value ([4]; Peptide 0.03 micro g/ml) was 539 radioactive counts per minute, the “incorporation of 3H thymidine” value ([4]; Peptide 0.1 micro g/ml) was 533 radioactive counts per minute and the “incorporation of 3H thymidine” value ([4]; Peptide 0.3 micro g/ml) was 611 radioactive counts per minute. For the same sequence, the “incorporation of 3H thymidine” value ([4]; Peptide 1 micro g/ml) was 472 radioactive counts per minute, the “incorporation of 3H thymidine” value ([4]; Peptide 3 micro g/ml) was 455 radioactive counts per minute and the “incorporation of 3H thymidine” value ([4]; Peptide 10 micro g/ml) was 405 radioactive counts per minute. The “number of antibody forming cells per one million nucleated spleen cells, re-based relative to 100 for control” value [5, 8] was 317, the “number of antibody forming cells per one million nucleated spleen cells, re-based relative to 100 for control” value [5, 9] was 267 and the “IL-8 concentration in culture” value (IL-8; Rupe312 0.001 micrograms/ml) was 13900 picrograms/ml. For the same sequence, the “IL-8 concentration in culture” value (IL-8; Rupe312 0.003 micrograms/ml) was 10700 picrograms/ml, the “IL-8 concentration in culture” value (IL-8; Rupe312 0.01 micrograms/ml) was 8984 picrograms/ml and the “IL-8 concentration in culture” value (IL-8; Rupe312 0.03 micrograms/ml) was 7869 picrograms/ml. For the same sequence, the “IL-8 concentration in culture” value (IL-8; Rupe312 0.1 micrograms/ml) was 6426 picrograms/ml.
